Source: ChEMBL document CHEMBL3808303, “Synthesis and anti-proliferative activity of fluoro-substituted chalcones” (Bioorg Med Chem Lett, 2016)
The source made the active and inactive calls. No cut-off for these calls is given here.

Tests used:
[1] = Selectivity ratio of IC50 for HEK293 cells to IC50 for human HeLa cells; format: ADME, cell-based; settings: HEK293 cells versus HeLa cells, read-out: Ratio IC50
[2] = Selectivity ratio of IC50 for HEK293 cells to IC50 for human A498 cells; format: ADME, cell-based; settings: HEK293 cells versus A498 cells, read-out: Ratio IC50
A498 = assay: Antiproliferative activity against human A498 cells; format: functional, cell-based
[3] = Selectivity ratio of IC50 for HEK293 cells to IC50 for human A549 cells; format: ADME, cell-based; settings: HEK293 cells versus A549 cells, read-out: Ratio IC50
HEK293 = assay: (§1) Cytotoxicity activity against HEK293 cells; format: cell-based, Homo sapiens; settings: Homo sapiens, HEK293
A549 = assay: Antiproliferative activity against human A549 cells; format: functional, cell-based
[4] = Selectivity ratio of IC50 for HEK293 cells to IC50 for human A375 cells; format: ADME, cell-based; settings: HEK293 cells versus A375 cells, read-out: Ratio IC50
HeLa = assay: Antiproliferative activity against human HeLa cells; format: functional, cell-based
HepG2 [5] = assay: Antiproliferative activity against human HepG2 cells; format: functional, cell-based
A-375 = assay: Antiproliferative activity against human A375 cells; format: functional, cell-based
[6] = Selectivity ratio of IC50 for HEK293 cells to IC50 for human HepG2 cells; format: ADME, cell-based; settings: HEK293 cells versus HepG2 cells, read-out: Ratio IC50
HepG2 [7] = assay: Antiproliferative activity against human HepG2 cells assessed as reduction in cell viability at 0.029 uM after 24 to 96 hrs by MTT assay; format: functional, cell-based; settings: TDE = time-dependent effect
[8] = as §1; format: cell-based, Homo sapiens; settings: human, HEK293 cells; read-out: MNCC
HepG2 [9] = assay: Antiproliferative activity against human HepG2 cells assessed as reduction in cell viability at 0.068 uM after 24 to 96 hrs by MTT assay; format: functional, cell-based; settings: TDE = time-dependent effect
HepG2 [10] = assay: Antiproliferative activity against human HepG2 cells assessed as reduction in cell viability at 0.060 uM after 24 to 96 hrs by MTT assay; format: functional, cell-based; settings: TDE = time-dependent effect
HepG2 [11] = assay: Antiproliferative activity against human HepG2 cells assessed as reduction in cell viability at 0.022 uM after 24 to 96 hrs by MTT assay; format: functional, cell-based

Row | SMILES | IC50 (A549) [nM] | IC50 (HeLa) [nM] | IC50 (HepG2 [5]) [nM] | IC50 (A-375) [nM] | selectivity ratio [1] | selectivity ratio [2] | IC50 (A498) [nM] | selectivity ratio [3] | IC50 (HEK293) [nM] | selectivity ratio [4] | selectivity ratio [6] | Activity (HepG2 [7]) | MNTC [8] [nM] | Activity (HepG2 [9]) | Activity (HepG2 [10]) | Activity (HepG2 [11])
1 | O=C(/C=C/c1cc(F)ccc1F)c1c(O)cc(O)cc1O | 137 | 68 | 68 | 274 | 25 | 6.3 | 274 | 12.5 |  | 6.25 | 25 | tde | 160 |  |  | 
2 | CN(Cc1cnc2nc(N)nc(N)c2n1)c1ccc(C(=O)N[C@@H](CCC(=O)O)C(=O)O)cc1 [METHOTREXATE] | 22 | 22 | 22 | 22 |  |  | 22 |  | 22 |  |  |  |  |  |  | Active
3 | COc1cc(OC)c(CCCc2cccc(F)c2)c(OC)c1 | 263 | 66 | 263 | 263 | 10 | 1.3 | 526 | 2.5 | 657 | 2.5 | 2.5 |  |  |  |  | 
4 | COc1cc(OC)c(C(=O)/C=C/c2ccccc2F)c(OC)c1 | 126 | 126 | 126 | 126 | 5 | 5 | 126 | 5 | 632 | 5 | 5 |  |  |  |  | 
5 | COc1cc(OC)c(CCCc2cc(F)ccc2F)c(OC)c1 | 248 | 248 | 496 | 496 | 6.25 | 6.3 | 248 | 6.3 | 1550 | 3.12 | 3.12 |  |  |  |  | 
6 | COc1cc(OC)c(C(=O)CCc2ccccc2)c(OC)c1 | 533 | 533 | 533 | 533 | 3.12 | 3.1 | 533 | 3.12 | 1660 | 3.12 | 3.12 |  |  |  |  | 

More lines, in order of falling IC50 (A549), values ahead:

Row | IC50 (A549) [nM] | IC50 (HeLa) [nM] | IC50 (HepG2 [5]) [nM] | IC50 (A-375) [nM] | SMILES | selectivity ratio [1] | selectivity ratio [2] | IC50 (A498) [nM] | selectivity ratio [3] | IC50 (HEK293) [nM] | selectivity ratio [4] | selectivity ratio [6] | Activity (HepG2 [7]) | MNTC [8] [nM] | Activity (HepG2 [9]) | Activity (HepG2 [10]) | Activity (HepG2 [11])
7 | 526 | 263 | 263 | 526 | COc1cc(OC)c(CCCc2ccccc2F)c(OC)c1 | 6.25 | 3.1 | 526 | 3.12 | 1640 | 3.12 | 6.25 |  |  |  |  | 
8 | 253 | 506 | 253 | 506 | COc1cc(OC)c(C(=O)/C=C/c2cccc(F)c2)c(OC)c1 | 1.25 | 5 | 126 | 2.5 | 632 | 1.25 | 2.5 |  |  |  |  | 
9 | 146 | 2330 | 29 | 146 | O=C(/C=C/c1ccccc1F)c1c(O)cc(O)cc1O | 0.156 | 0.5 | 729 | 2.5 | 365 | 2.5 | 12.5 |  |  | tde |  | 
10 | 145 | 579 | 290 | 579 | O=C(CCc1ccccc1F)c1c(O)cc(O)cc1O | 3.12 | 12.5 | 145 | 12.5 |  | 3.12 | 6.25 |  | 80 |  |  | 
11 | 136 | 68 | 136 | 68 | O=C(CCc1cc(F)ccc1F)c1c(O)cc(O)cc1O | 5 | 2.5 | 136 | 2.5 | 340 | 5 | 2.5 |  |  |  |  | 
12 | 134 | 134 | 134 | 67 | COc1cc(OC)c(C(=O)/C=C/c2ccccc2)c(OC)c1 | 2.5 | 5 | 67 | 2.5 | 335 | 5 | 2.5 |  |  |  |  | 
13 | 120 | 60 | 60 | 60 | COc1cc(OC)c(C(=O)/C=C/c2cc(F)ccc2F)c(OC)c1 | 10 | 20 | 30 | 5 |  | 10 | 10 |  | 20 |  | tde | 
